What was measured:
EGFR kinase = EGFR kinase (Homo sapiens (Human), UniProt P00533); assay: Inhibition of EGFR kinase activity (ULight-labeled JAK-1 (Tyr1023) peptide substrate); format: biochemical; settings: EGFR kinase 0.35 nM, ATP 150 μM, 2 hours
Method: (§1) The assay for the inhibition of EGFR and HER2 kinase activity by small molecular compounds was carried out using the method as follows:
(§2) 1) Dilution of the compounds
(§3) In a 96-well plate a, the compounds were diluted with DMSO using a 3-fold gradient dilution to form 11 concentrations, the 12th concentration is pure DMSO (as a positive control); and in a new 96-well plate b the above solutions were diluted 25 times with ultrapure water (DMSO concentration is 4%).
(§4) 2) Transferring the compounds to 384-well plate
(§5) The compound solutions diluted with ultrapure water in the 96-well plate b above was transferred to the corresponding wells of a 384-well plate in duplicate.
(§6) 3) Addition of 4×kinase solution: 2.5 μl of the above 4× kinase solution was taken using multichannel pipette and added to the corresponding reaction wells of the 384-well plate, mixed well and pre-reacted at room temperature for 5 minutes.
(§7) 4) Addition of 2×substrate/ATP mixed solution: 5 μl of the above 2×substrate/ATP mixed solution was taken using multichannel pipette and added to the corresponding reaction wells of the 384-well plate.
(§8) 5) Negative control: negative control wells were set in the 384-well plate, and 2.5 μl 4×substrate, 2.5 μl 4×enzyme solution, 2.5 μl 1×Kinase Assay Buffer and 2.5 μl ultrapure water containing 4% DMSO were added to each well.
(§9) 6) Mixed by centrifugation and kept at room temperature for 2 hours in the dark.
(§10) 7) Termination of the enzymatic reaction:
(§11) 5 μl of the above 4× stop solution was pipetted to the corresponding wells of the 384-well plate, centrifuged and mixed, and reacted at room temperature for 5 minutes.
(§12) 5 μl of the above 4× detection solution was pipetted into the corresponding wells of the 384-well plate, centrifuged and mixed, and reacted at room temperature for 1 hour.
(§13) 9) The 384-well plate was placed into a microplate reader and the signal was detected using the corresponding program.
(§14) 10) IC50 analysis: Well reading value=10000*EU665 value/EU615 value Inhibition rate=(reading value of positive control well−reading value of experimental well)/(reading value of positive control well−reading value of negative control well)*100% Corresponding IC50s can be calculated by entering the drug concentrations and the corresponding inhibition rates into GraphPad Prism 5.
Conditions of experiment for screening EGFR kinase inhibitory molecules:
The final concentration of EGFR kinase in the reaction system is 0.35 nM, and the final concentration of ATP is 150 μM, the final concentration of substrate ULight™-labeled JAK-1 (Tyr1023) Peptide is 100 nM, and the enzymatic reaction time is 2 hours.
(§15) The maximum final concentration of the compound in the reaction system is 2.5 μM, 11 concentrations were made with a 3-fold gradient dilution, and the minimal final concentration is 0.042 nM. The final concentration of DMSO is 1%.

BT474 cells = assay: Inhibition of cell proliferation, BT474 (CCK-8, 72 h); format: cell-based; settings: Homo sapiens, BT-474, 72 h incubation
Method: The assay for the inhibition of cell proliferation by small molecular compounds was carried out using the method as follows:
1. 600 μL pancreatin was added to a T75 cell culture flask, which was digested in a 37° C. incubator for about 1 min before 5 mL of DMEM complete culture solution was added, blew evenly, transferred to a 15 mL centrifuge tube, and centrifuged at 1000 rpm for 4 min;
2. The supernatant was removed and 5 mL DMEM complete culture solution was added, blew evenly, and 10 μL cell suspension was taken and mixed with 10 μL 0.4% Trypan Blue, and counted using a cell counter;
3. BT474 and HCC827 cell lines were seeded in 96-well plates at a cell density of 10,000 and 3000 cells/well/80 μL, respectively, and cultured overnight. Only sterile water was added to the 36 wells on the periphery of the 96-well plate without adding cells, and only the 60 wells in the center of the 96-well plate were used for cell assays and controls;
4. Dilution of compounds: the compounds were diluted with a 3-fold dilution to make 10 concentrations in total with an initial concentration of 10 mM;
5. 20 μL of different compounds with different concentrations were added to each well, and 20 μL of complete culture solution was added to the remaining wells. The final concentration of DMSO in each well is 0.25%;
6. After 72 h of incubation, 10 μL CCK-8 reagent was added to each well, and incubated at 37° C. for 1-2 h; and the OD value was read at 450 nm;
7. Cell survival rate (%)=[(As−Ab)/(Ac−Ab)]*100%
As: Assay well (medium containing cell, CCK-8, compound)
Ac: Control well (medium containing cell, CCK-8)
Ab: Blank well (CCK-8, medium without cell and compound)
8. The value was imported into Graphpad Prism5 software for the calculation of IC50s (compound concentration at which 50% maximum survival rate is observed).

HER2 kinase = HER2 kinase (Homo sapiens (Human), UniProt P04626); assay: Inhibition of HER2 kinase activity (ULight-labeled PolyGT substrate); format: biochemical; settings: HER2 kinase 10 nM, ATP 10 μM, 2 hours
Method: as §1, §2, §3, §4, §5, §6, §7, §8, §9, §10, §11, §12, §13, §14
Conditions of experiment for screening HER2 kinase inhibitory molecules:
The final concentration of HER2 kinase in the reaction system is 10 nM, the final concentration of ATP is 10 μM, the final concentration of substrate ULight™-labeled PolyGT is 100 nM, and the enzymatic reaction time is 2 hours.
as §15

Sequence of HER2 kinase (P04626 23-1255): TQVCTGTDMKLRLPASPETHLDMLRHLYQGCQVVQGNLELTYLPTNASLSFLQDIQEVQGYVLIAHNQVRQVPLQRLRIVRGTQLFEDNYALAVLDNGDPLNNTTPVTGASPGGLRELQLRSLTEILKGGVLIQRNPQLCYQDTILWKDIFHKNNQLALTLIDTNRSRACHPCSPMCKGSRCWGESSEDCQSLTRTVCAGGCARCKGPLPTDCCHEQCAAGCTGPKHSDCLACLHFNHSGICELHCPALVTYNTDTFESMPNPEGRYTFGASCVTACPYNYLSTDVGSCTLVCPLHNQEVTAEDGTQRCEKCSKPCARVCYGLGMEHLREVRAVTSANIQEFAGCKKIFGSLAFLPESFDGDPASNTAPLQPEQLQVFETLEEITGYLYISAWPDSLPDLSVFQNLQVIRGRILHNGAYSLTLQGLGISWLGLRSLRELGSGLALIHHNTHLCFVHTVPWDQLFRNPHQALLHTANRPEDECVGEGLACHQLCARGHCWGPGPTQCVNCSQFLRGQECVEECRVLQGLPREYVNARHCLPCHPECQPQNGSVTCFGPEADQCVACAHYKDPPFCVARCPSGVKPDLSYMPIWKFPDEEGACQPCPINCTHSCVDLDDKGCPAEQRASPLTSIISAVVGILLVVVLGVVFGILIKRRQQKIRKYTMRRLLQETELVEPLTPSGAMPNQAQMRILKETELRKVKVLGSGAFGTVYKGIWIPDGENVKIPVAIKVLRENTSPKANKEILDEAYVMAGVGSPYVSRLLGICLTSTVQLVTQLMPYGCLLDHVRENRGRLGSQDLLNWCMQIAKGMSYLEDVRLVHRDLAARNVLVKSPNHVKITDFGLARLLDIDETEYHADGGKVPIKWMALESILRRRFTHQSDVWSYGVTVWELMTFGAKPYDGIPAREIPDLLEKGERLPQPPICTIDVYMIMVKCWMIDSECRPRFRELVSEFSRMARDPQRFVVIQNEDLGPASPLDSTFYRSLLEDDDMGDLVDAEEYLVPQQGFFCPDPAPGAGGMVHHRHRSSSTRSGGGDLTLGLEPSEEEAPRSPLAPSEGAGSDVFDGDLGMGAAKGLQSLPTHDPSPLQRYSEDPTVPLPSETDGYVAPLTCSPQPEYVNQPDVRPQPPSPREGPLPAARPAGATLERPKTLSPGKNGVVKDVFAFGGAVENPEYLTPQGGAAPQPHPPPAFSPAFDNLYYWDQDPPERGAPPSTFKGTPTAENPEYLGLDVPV
Sequence of EGFR kinase (P00533 25-1210): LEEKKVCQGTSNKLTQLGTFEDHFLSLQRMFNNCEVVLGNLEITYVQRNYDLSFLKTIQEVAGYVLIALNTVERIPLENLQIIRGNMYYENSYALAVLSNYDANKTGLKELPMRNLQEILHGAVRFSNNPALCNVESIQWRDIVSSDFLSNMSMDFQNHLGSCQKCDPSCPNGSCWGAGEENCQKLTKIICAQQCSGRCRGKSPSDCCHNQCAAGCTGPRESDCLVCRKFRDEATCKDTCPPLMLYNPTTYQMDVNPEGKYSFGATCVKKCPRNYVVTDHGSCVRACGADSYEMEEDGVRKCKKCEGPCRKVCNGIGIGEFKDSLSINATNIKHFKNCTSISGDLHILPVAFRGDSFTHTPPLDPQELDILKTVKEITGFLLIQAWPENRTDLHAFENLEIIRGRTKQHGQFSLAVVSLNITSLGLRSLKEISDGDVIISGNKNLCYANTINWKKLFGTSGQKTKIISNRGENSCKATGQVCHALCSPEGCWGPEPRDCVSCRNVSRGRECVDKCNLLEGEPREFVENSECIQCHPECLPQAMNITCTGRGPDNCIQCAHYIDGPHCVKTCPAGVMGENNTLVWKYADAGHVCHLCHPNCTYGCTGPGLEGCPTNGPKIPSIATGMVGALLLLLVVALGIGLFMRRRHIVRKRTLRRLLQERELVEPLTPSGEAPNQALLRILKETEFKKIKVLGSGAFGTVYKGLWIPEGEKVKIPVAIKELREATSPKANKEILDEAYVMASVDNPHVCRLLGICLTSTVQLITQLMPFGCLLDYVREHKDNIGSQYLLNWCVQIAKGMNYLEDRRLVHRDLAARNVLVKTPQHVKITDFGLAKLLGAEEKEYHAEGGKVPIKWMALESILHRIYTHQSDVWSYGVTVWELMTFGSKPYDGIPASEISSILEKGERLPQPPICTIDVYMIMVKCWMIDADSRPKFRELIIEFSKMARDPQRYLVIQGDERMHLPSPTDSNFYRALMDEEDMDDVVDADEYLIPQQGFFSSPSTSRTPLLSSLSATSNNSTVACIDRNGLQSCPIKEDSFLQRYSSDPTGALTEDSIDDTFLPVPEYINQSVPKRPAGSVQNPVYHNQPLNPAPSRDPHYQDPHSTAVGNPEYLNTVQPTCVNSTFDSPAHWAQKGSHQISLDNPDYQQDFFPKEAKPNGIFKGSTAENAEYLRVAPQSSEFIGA

| IC50 (EGFR kinase) [nM] | IC50 (BT474 cells) [nM] | IC50 (HER2 kinase) [nM] | Structure (SMILES) |
| --- | --- | --- | --- |
| 50 to 500 | ≤ 50 | ≤ 50 | Cc1cc(Nc2ncnc3ccc4c(c23)OCCN4C(=O)/C=C/CN2CCCCC2)ccc1Oc1ccn2ncnc2c1 [Example 134, (E)-1-(10-((4-([1,2,4]triazolo[1,5-a]pyridin-7-yloxy)-3-methylphenyl)amino)-2,3-dihydro-4H-[1,4]oxazino[2,3-f]quinazolin-4-yl)-4-(piperidin-1-yl)but-2-en-1-one] |
| 500 to 5000 | ≤ 50 | ≤ 50 | Cc1cc(Nc2ncnc3ccc4c(c23)OCCN4C(=O)/C=C/CN(C)C(C)C)ccc1Oc1ccn2ncnc2c1 [Example 133, (E)-1-(10-((4-([1,2,4]triazolo[1,5-a]pyridin-7-yloxy)-3-methylphenyl)amino)-2,3-dihydro-4H-[1,4]oxazino[2,3-f]quinazolin-4-yl)-4-(isopropyl(methyl)amino)but-2-en-1-one] |
| 50 to 500 | ≤ 50 | ≤ 50 | Cc1cc(Nc2ncnc3ccc4c(c23)OCCN4C(=O)/C=C/CN2CCN(C)CC2)ccc1Oc1ccn2ncnc2c1 [Example 132, (E)-1-(10-((4-([1,2,4]triazolo[1,5-a]pyridin-7-yloxy)-3-methylphenyl)amino)-2,3-dihydro-4H-[1,4]oxazino[2,3-f]quinazolin-4-yl)-4-(4-methylpiperazin-1-yl)but-2-en-1-one] |
| 50 to 500 | ≤ 50 | ≤ 50 | COCCN(C)C/C=C/C(=O)N1CCOc2c1ccc1ncnc(Nc3ccc(Oc4ccn5ncnc5c4)c(Cl)c3)c21 [Example 130, (E)-1-(10-((4-([1,2,4]triazolo[1,5-a]pyridin-7-yloxy)-3-chlorophenyl)amino)-2,3-dihydro-4H-[1,4]oxazino[2,3-f]quinazolin-4-yl)-4-((2-methoxyethyl)(methyl)amino)but-2-en-1-one] |
| 50 to 500 | ≤ 50 | ≤ 50 | CC(C)N(C)C/C=C/C(=O)N1CCOc2c1ccc1ncnc(Nc3ccc(Oc4ccn5ncnc5c4)c(Cl)c3)c21 [Example 127, (E)-1-(10-((4-([1,2,4]triazolo[1,5-a]pyridin-7-yloxy)-3-chlorophenyl)amino)-2,3-dihydro-4H-[1,4]oxazino[2,3-f]quinazolin-4-yl)-4-(isopropyl(methyl)amino)but-2-en-1-one] |
| ≤ 50 | ≤ 50 | ≤ 50 | CN1CCN(C/C=C/C(=O)N2CCOc3c2ccc2ncnc(Nc4ccc(Oc5ccn6ncnc6c5)c(Cl)c4)c32)CC1 [Example 126, (E)-1-(10-((4-([1,2,4]triazolo[1,5-a]pyridin-7-yloxy)-3-chlorophenyl)amino)-2,3-dihydro-4H-[1,4]oxazino[2,3-f]quinazolin-4-yl)-4-(4-methylpiperazin-1-yl)but-2-en-1-one] |
| 50 to 500 | ≤ 50 | ≤ 50 | CCN(CC)C/C=C/C(=O)N1CCOc2c1ccc1ncnc(Nc3ccc(Oc4ccn5ncnc5c4)c(Cl)c3)c21 [Example 131, (E)-1-(10-((4-([1,2,4]triazolo[1,5-a]pyridin-7-yloxy)-3-chlorophenyl)amino)-2,3-dihydro-4H-[1,4]oxazino[2,3-f]quinazolin-4-yl)-4-(diethylamino)but-2-en-1-one] |
| 50 to 500 |  | ≤ 50 | COCCCCNC/C=C/C(=O)N1CCOc2c1ccc1ncnc(Nc3ccc(Oc4ccccc4F)cc3)c21 [Example 99, (E)-1-(10-((4-(2-fluorophenoxy)phenyl)amino)-2,3-dihydro-4H-[1,4]oxazino[2,3-f]quinazolin-4-yl)-4-((4-methoxybutyl)amino)but-2-en-1-one] |
| 50 to 500 | ≤ 50 | ≤ 50 | Cc1cc(Nc2ncnc3ccc4c(c23)OCCN4C(=O)/C=C/CN(C)C)ccc1Oc1ccn2ncnc2c1 [Example 124, (E)-1-(10-((4-([1,2,4]triazolo[1,5-a]pyridin-7-yloxy)-3-methylphenyl)amino)-2,3-dihydro-4H-[1,4]oxazino[2,3-f]quinazolin-4-yl)-4-(dimethylamino)but-2-en-1-one] |
| 50 to 500 |  | ≤ 50 | CC(Oc1ccc(Nc2ncnc3ccc4c(c23)OCCN4C(=O)/C=C/CN(C)C)cc1)c1ccccn1 (centres unmarked) [Example 75, (E)-4-(dimethylamino)-1-(10-((4-(1-(pyridin-2-yl)ethoxy)phenyl)amino)-2,3-dihydro-4H-[1,4]oxazino[2,3-f]quinazolin-4-yl)but-2-en-1-one] |
| ≤ 50 |  | ≤ 50 | C=CC(=O)N1CCOc2c1ccc1ncnc(Nc3ccc(Oc4ccccc4)cc3)c21 [Example 2, 1-(10-((4-phenoxyphenyl)amino)-2,3-dihydro-4H-[1,4]oxazino[2,3-f]quinazolin-4-yl)prop-2-en-1-one] |
| ≤ 50 |  | ≤ 50 | C=CC(=O)N1CCOc2c1ccc1ncnc(Oc3ccc(OCc4cccc(F)c4)cc3)c21 [Example 41, 1-(10-(4-((3-fluorobenzyl)oxy)phenoxy)-2,3-dihydro-4H-[1,4]oxazino[2,3-f]quinazolin-4-yl)prop-2-en-1-one] |
| ≤ 50 |  | ≤ 50 | CN(C)C/C=C/C(=O)N1CCOc2c1ccc1ncnc(Nc3ccc(OCc4cccc(F)c4)c(Cl)c3)c21 [Example 45, (E)-1-(10-((3-chloro-4-((3-fluorobenzyl)oxy)phenyl)amino)-2,3-dihydro-4H-[1,4]oxazino[2,3-f]quinazolin-4-yl)-4-(dimethylamino)but-2-en-1-one] |
| 500 to 5000 |  | ≤ 50 | CN(C)C/C=C/C(=O)N1CCOc2c1ccc1ncnc(Nc3ccc(OCc4ccncc4)cc3)c21 [Example 77, (E)-4-(dimethylamino)-1-(10-((4-(pyridin-4-ylmethoxy)phenyl)amino)-2,3-dihydro-4H-[1,4]oxazino[2,3-f]quinazolin-4-yl)but-2-en-1-one] |
| ≤ 50 |  | ≤ 50 | C=CC(=O)N1CCOc2c1ccc1ncnc(Oc3ccc(OCc4ccccn4)c(Cl)c3)c21 [Example 34, 1-(10-(3-chloro-4-(pyridin-2-ylmethoxy)phenoxy)-2,3-dihydro-4H-[1,4]oxazino[2,3-f]quinazolin-4-yl)prop-2-en-1-one] |
| ≤ 50 |  | ≤ 50 | C=CC(=O)N1CCOc2c1ccc1ncnc(Oc3ccc(OCc4ccc(F)cc4)cc3)c21 [Example 42, 1-(10-(4-((4-fluorobenzyl)oxy)phenoxy)-2,3-dihydro-4H-[1,4]oxazino[2,3-f]quinazolin-4-yl)prop-2-en-1-one] |
| ≤ 50 |  | ≤ 50 | C=CC(=O)N1CCOc2c1ccc1ncnc(Oc3ccc(OCc4ccccn4)cc3)c21 [Example 39, 1-(10-(4-(pyridin-2-ylmethoxy)phenoxy)-2,3-dihydro-4H-[1,4]oxazino[2,3-f]quinazolin-4-yl)prop-2-en-1-one] |
| ≤ 50 |  | ≤ 50 | C=CC(=O)N1CCOc2c1ccc1ncnc(Oc3ccc(Oc4ccccc4)cc3)c21 [Example 33, 1-(10-(4-phenoxyphenoxy)-2,3-dihydro-4H-[1,4]oxazino[2,3-f]quinazolin-4-yl)prop-2-en-1-one] |
